The values that follow are results of earlier work, collected in patent US5888993A, “Vanadium compounds in the treatment of elevated blood sugar levels” (The University of British Columbia, priority 1997, dated 1999).

The test system of one series is Na^+ -K^+ ATPase. Conditions: cited from earlier work.
For series [1] the following is noted: cited from earlier work.
The next series relates to red blood cells. The note with it: cytoplasm; cited from earlier work.
For series [2] the following is noted: in vivo; cited from earlier work.
The subject of series [3] is rats made diabetic with streptozoticin (STZ). Conditions: oral / drinking water; cited from earlier work.
The conditions of series [4]: in vivo; cited from earlier work. This is another data set of the same source.
The next series concerns rat adipocytes. Conditions: in vitro; cited from earlier work.

On to `[Na+].[Na+].[Na+].[O]=[V]([O-])([O-])[O-]` [Sodium orthovanadate], for which the “inhibition of Na^+ -K^+ ATPase” value with Na^+ -K^+ ATPase is reported as “potent inhibitor”.
For the compound `[O]=[V]([O-])([O-])[O-]` [vanadate], the in vivo reduction result in series [1] is listed as “reduced in vivo to vanadyl”. Besides, the “reduction of vanadate in red blood cells” value in the series on red blood cells was “reduced to vanadium (IV)”. The “absorption from the gastrointestinal tract” value in series [2] is reported as “poorly absorbed”. For the same compound, in series [3], the blood glucose result was “decreased the elevated blood glucose” and the “cardiac performance / secondary complications of diabetes” value was “prevented the depression of cardiac performance”. Further, the toxicity result in series [4] is given as “toxic”.
In the case of `[O]=[V+2]` [vanadyl ion], the “insulin-like stimulation of glucose oxidation” value with rat adipocytes is reported as “insulin-like stimulation of glucose oxidation”.
